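Briefly, cells in 96-well plates were exposed to five compound concentrations for 48 h, and endpoints were estimated by linear interpolation. At the GI50, growth is halved.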 The source made the active and inactive calls. Cut-off read from the data, not from the text of the source: active = GI50 up to about 1.1 µM and inactive = higher.
Columns and labels:
Assay in all cases: NCI tumour cell line growth inhibition, 48 h
KM12 = system: KM12
SNB-78 = system: SNB-78
NCI-H460 = system: NCI-H460
SF-539 = system: SF-539
OVCAR-5 = system: OVCAR-5
DMS-114 = system: DMS-114
M19-MEL = system: M19-MEL
UO-31 = system: UO-31
HOP-18 = system: HOP-18
SK-OV-3 = system: SK-OV-3
DLD-1 = system: DLD-1
KM-20L2 = system: KM-20L2
MDA-MB-435 = system: MDA-MB-435
T47D = system: T47D
MDA-MB-231 = system: MDA-MB-231
BT-549 = system: BT-549
Hs-578T = system: Hs-578T
NCI/ADR-RES = system: NCI/ADR-RES
TK-10 = system: TK-10
DMS-273 = system: DMS-273

| SMILES | GI50 (KM12) | GI50 (SNB-78) | GI50 (NCI-H460) | GI50 (SF-539) | GI50 (OVCAR-5) | GI50 (DMS-114) | GI50 (M19-MEL) | GI50 (UO-31) | GI50 (HOP-18) | GI50 (SK-OV-3) | GI50 (DLD-1) | GI50 (KM-20L2) | GI50 (MDA-MB-435) | GI50 (T47D) | GI50 (MDA-MB-231) | GI50 (BT-549) | GI50 (Hs-578T) | GI50 (NCI/ADR-RES) | GI50 (TK-10) | GI50 (DMS-273) |
| --- | --- | --- | --- | --- | --- | --- | --- | --- | --- | --- | --- | --- | --- | --- | --- | --- | --- | --- | --- | --- |
| CCCCCCCCCCCCSC(=S)c1c(C)[nH]n(CCCCCCCCCCCC)c1=O | > 100 µM (inactive) | > 100 µM (inactive) | 50.5 µM (inactive) | > 100 µM (inactive) | > 100 µM (inactive) | 46.1 µM (inactive) | 31.6 µM (inactive) | 88.1 µM (inactive) | 65 µM (inactive) | > 100 µM (inactive) | > 100 µM (inactive) | 73.1 µM (inactive) | – | – | – | – | – | – | – | – |
| O=c1ccc2ccc(CBr)cc2o1 | – | – | 10.8 µM (inactive) | 3.97 µM (inactive) | 1.73 µM (inactive) | – | – | – | – | – | – | – | 3.14 µM (inactive) | 2.38 µM (inactive) | 1.72 µM (inactive) | 3 µM (inactive) | 9.84 µM (inactive) | 1.69 µM (inactive) | 1.75 µM (inactive) | – |
| CCOC(=O)/C(Cl)=C(\C)Nc1nc2c(ccc3ccccc32)s1 | 30.6 µM (inactive) | – | 22.5 µM (inactive) | – | 81.1 µM (inactive) | – | – | > 100 µM (inactive) | – | > 100 µM (inactive) | – | – | – | 13.6 µM (inactive) | 60.5 µM (inactive) | 61.7 µM (inactive) | 35 µM (inactive) | > 100 µM (inactive) | > 100 µM (inactive) | – |
| C[C@H](N[C@H]1CCC[C@]1(O)C#Cc1ccc2c(c1)OCO2)c1ccccc1 | > 25 µM (inactive) | – | 21.4 µM (inactive) | – | > 25 µM (inactive) | – | – | > 25 µM (inactive) | – | > 25 µM (inactive) | – | – | > 25 µM (inactive) | 21.8 µM (inactive) | 22.1 µM (inactive) | – | > 25 µM (inactive) | > 25 µM (inactive) | > 25 µM (inactive) | – |
| Clc1nc(-[n+]2ccc(-c3ccncc3)cc2)nc(Nc2ccccc2)c1Cl | > 100 µM (inactive) | – | > 100 µM (inactive) | > 100 µM (inactive) | > 100 µM (inactive) | – | – | > 100 µM (inactive) | – | > 100 µM (inactive) | – | – | > 100 µM (inactive) | 43.7 µM (inactive) | > 100 µM (inactive) | > 100 µM (inactive) | > 100 µM (inactive) | > 100 µM (inactive) | > 100 µM (inactive) | – |
| O=C1CCCN1CCC/N=c1/cc2n(-c3ccc(Cl)cc3)c3ccccc3nc-2cc1Nc1ccc(Cl)cc1 | 13.4 µM (inactive) | 18.9 µM (inactive) | 7.06 µM (inactive) | 12.7 µM (inactive) | 17 µM (inactive) | 6.38 µM (inactive) | 2.32 µM (inactive) | 6.73 µM (inactive) | 24.8 µM (inactive) | 46.7 µM (inactive) | 4.81 µM (inactive) | 2.42 µM (inactive) | – | – | – | – | – | 15.6 µM (inactive) | – | 15.6 µM (inactive) |
| CC(C)(C)c1ccc2c(c1)OP1(Oc3c(Cl)cc(Cl)c4cccnc34)(O2)Oc2ccc(C(C)(C)C)cc2O1 | 6.87 µM (inactive) | 23 µM (inactive) | 3.8 µM (inactive) | 7.78 µM (inactive) | 13.7 µM (inactive) | 2.62 µM (inactive) | 3.12 µM (inactive) | 5.08 µM (inactive) | 9.98 µM (inactive) | 11.9 µM (inactive) | 5.2 µM (inactive) | 4.92 µM (inactive) | – | – | – | – | – | 8.11 µM (inactive) | – | 5.04 µM (inactive) |
| Nc1nc(Cl)nc2c1ncn2C1CC(O)C(CO)O1 (stereo not given) | > 100 µM (inactive) | > 100 µM (inactive) | 7.28 µM (inactive) | 20.3 µM (inactive) | 1.78 µM (inactive) | 0.228 µM (active) | > 30.3 µM (inactive) | 0.701 µM (active) | > 100 µM (inactive) | 52.7 µM (inactive) | > 100 µM (inactive) | 2.42 µM (inactive) | – | – | – | – | – | 0.103 µM (active) | – | 3.89 µM (inactive) |
| COc1cc(C2S/C(=C/c3ccccc3)C(=O)N2c2ccccc2Cl)cc(OC)c1OC (stereo not given) | 22 µM (inactive) | – | – | – | 42.5 µM (inactive) | – | – | 28.5 µM (inactive) | – | 29.6 µM (inactive) | – | – | 15.6 µM (inactive) | 5.26 µM (inactive) | 23.4 µM (inactive) | 29.3 µM (inactive) | 16.5 µM (inactive) | 25.6 µM (inactive) | 76.2 µM (inactive) | – |

From ChEMBL document CHEMBL1201862, “PubChem BioAssay data set” (2004)
